What was measured:
[1] = system: 3T3-L1 Mouse Adipocytes; assay: Free fatty acid levels in cultured 3T3-L1 mouse adipocytes (isoproterenol stimulated); type: cell-based; settings: free fatty acid in medium; 5 μM peptide, 20-22 h pre-incubation then 3 h with 0.1 nM isoproterenol; isoproterenol alone = 100%
How it was run: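 3T3-L1 cells differentiated 12 days, insulin withdrawn, then peptides added on day 13 at 5 μM (0.1% DMSO) for 20-22 h at 37° C. After 3 h in assay buffer, medium free fatty acids read at 540 nm. Values expressed as percent of 0.1 nM isoproterenol-alone control.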

[2] = system: C2C12 Cells; assay: Glucose utilization in cultured C2C12 cells (myotubes); type: cell-based, mouse; settings: glucose concentration in medium relative to untreated cells; 5 μM peptide, 22 h
How it was run: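 Differentiated mouse myotubes (5 days in 2% horse serum) serum-starved 5 h, then treated 22 h at 37 °C with peptide at 5 μM final (0.1% DMSO) in low-glucose (1 g/L) DMEM. Glucose remaining in medium measured colorimetrically at 570 nm. Expressed as percent of untreated control, from 2–3 experiments in triplicate.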

[3] = system: H4-IIE Cells; assay: Glucose production in cultured H4-IIE cells; type: cell-based, rat; settings: glucose concentration in medium relative to untreated cells; 5 μM peptide, 24 h
How it was run: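 Rat H4-IIE hepatoma cells primed overnight in glucose-free DMEM with 2 mM pyruvate and 10 mM lactate, then treated 24 h at 37 °C with 5 μM peptide (0.1% DMSO; concentration assumes ~2000 Da). Medium glucose measured colorimetrically at 570 nm. Values are percent of untreated-cell glucose production; 0.5-1 nM insulin served as inhibitor reference.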

Question: How did the “Percent of Isoproterenol Control Activity” value [1] turn out when “192 (LGWVVGSFFMGGVWVGRSGIGGML) [compound 192]” was run?
Answer: 104%

Question: What about the “Percent of Control Activity” value [2] of the same substance?
Answer: 98%

Question: What about the “Percent of Control Activity” value [3] of the same substance?
Answer: 110%

Question: With “193 (LHNNPNPNTNYLPNWKQNTQMGLS) [compound 193]” as the substance, how does the “Percent of Isoproterenol Control Activity” value [1] read?
Answer: 105%

Question: What about the “Percent of Control Activity” value [2] of the same substance?
Answer: 110%

Question: What about the “Percent of Control Activity” value [3] of the same substance?
Answer: 110%

Question: What does the source list for “194 (LSPKPQQLNQQNCSPEHYEPQLKT) [compound 194]”?
Answer: Percent of Isoproterenol Control Activity [1]: 103%; Percent of Control Activity [2]: 92%; Percent of Control Activity [3]: 109%

Question: What does the source list for “195 (LTSKYSNQPSTITHQLQLQSHPSP) [compound 195]”?
Answer: Percent of Isoproterenol Control Activity [1]: 110%; Percent of Control Activity [2]: 112%; Percent of Control Activity [3]: 108%

Question: “196 (LVPFDRGDLEGELTGTGMLACVIL) [compound 196]” was tested. Which “Percent of Isoproterenol Control Activity” value [1] did it give?
Answer: 98%

Question: What about the “Percent of Control Activity” value [2] of the same substance?
Answer: 97%

Question: What about the “Percent of Control Activity” value [3] of the same substance?
Answer: 116%

Question: For “197 (WVEVMMEVEIWCCEIVLGNSFSSQ) [compound 197]”, which “Percent of Isoproterenol Control Activity” value [1] is on record?
Answer: 100%

Question: And the “Percent of Control Activity” value [2]?
Answer: 102%

Question: What about the “Percent of Control Activity” value [3] of the same substance?
Answer: 105%

Question: Which “Percent of Isoproterenol Control Activity” value [1] does the source give for “198 (PIVTIMSPSWLEVEKATIFLMSFC) [compound 198]” here?
Answer: 112%

Question: What about the “Percent of Control Activity” value [2] of the same substance?
Answer: 88%

Question: And the “Percent of Control Activity” value [3]?
Answer: 100%

Question: With “199 (PLCKIHCRIHLYYQSLPHNNIHVP) [compound 199]” as the substance, how does the “Percent of Isoproterenol Control Activity” value [1] read?
Answer: 105%

Question: And the “Percent of Control Activity” value [2]?
Answer: 94%

Question: What about the “Percent of Control Activity” value [3] of the same substance?
Answer: 111%

Question: For “200 (RLLAWGNTWWQLLWNEGLFFWLEL) [compound 200]”, which “Percent of Isoproterenol Control Activity” value [1] is on record?
Answer: 104%

Question: What about the “Percent of Control Activity” value [2] of the same substance?
Answer: 93%

Question: What about the “Percent of Control Activity” value [3] of the same substance?
Answer: 97%

Question: Which results are given for “201 (TKNFHQTPPPPLLATALKHISAKP) [compound 201]”?
Answer: Percent of Isoproterenol Control Activity [1]: 102%; Percent of Control Activity [2]: 96%; Percent of Control Activity [3]: 109%

Question: For “202 (MWVIEEYAKILRSWVWFNPPQLPA) [compound 202]”, which “Percent of Isoproterenol Control Activity” value [1] is on record?
Answer: 93%

Question: And the “Percent of Control Activity” value [2]?
Answer: 89%

Question: And the “Percent of Control Activity” value [3]?
Answer: 103%

Question: With 203 (KNIEAPLAW) [compound 203] as the substance, how does the “Percent of Isoproterenol Control Activity” value [1] read?
Answer: 107%

Question: And the “Percent of Control Activity” value [2]?
Answer: 98%

Question: And the “Percent of Control Activity” value [3]?
Answer: 102%

Question: What does the source list for 204 (RMGASIGSTTRLSTS) [compound 204]?
Answer: Percent of Isoproterenol Control Activity [1]: 111%; Percent of Control Activity [2]: 95%; Percent of Control Activity [3]: 107%

Question: For “205 (VQTVSISWASEMLVLVSFVVSV) [compound 205]”, which “Percent of Isoproterenol Control Activity” value [1] is on record?
Answer: 105%

Question: What about the “Percent of Control Activity” value [2] of the same substance?
Answer: 99%

Question: And the “Percent of Control Activity” value [3]?
Answer: 102%

Question: Which results are given for 206 (SSSMMGEVASC) [compound 206]?
Answer: Percent of Isoproterenol Control Activity [1]: 95%; Percent of Control Activity [2]: 99%; Percent of Control Activity [3]: 106%

Question: For 207 (VVGSWCWSLSWVVGMR) [compound 207], which “Percent of Isoproterenol Control Activity” value [1] is on record?
Answer: 98%

Question: What about the “Percent of Control Activity” value [2] of the same substance?
Answer: 90%

Question: And the “Percent of Control Activity” value [3]?
Answer: 103%

Question: Which “Percent of Isoproterenol Control Activity” value [1] does the source give for 208 (CHWAGGASNTGDA) [compound 208] here?
Answer: 103%

Question: And the “Percent of Control Activity” value [2]?
Answer: 89%

Question: What about the “Percent of Control Activity” value [3] of the same substance?
Answer: 107%

Question: How did the “Percent of Isoproterenol Control Activity” value [1] turn out when 209 (FAVSMMWSLE) [compound 209] was run?
Answer: 97%

Question: What about the “Percent of Control Activity” value [2] of the same substance?
Answer: 102%

Question: And the “Percent of Control Activity” value [3]?
Answer: 104%

Question: For 210 (MKVDATMDFT) [compound 210], which “Percent of Isoproterenol Control Activity” value [1] is on record?
Answer: 95%

Question: What about the “Percent of Control Activity” value [2] of the same substance?
Answer: 92%

Question: And the “Percent of Control Activity” value [3]?
Answer: 100%
